Test results as given in patent publication US12152035B2, “Androgen receptor binding molecule and use thereof” (Industrial Technology Research Institute, priority 2020, dated 2024).

Experiments:
Format in all cases: cell-based
[1] = test system: full-length androgen receptor; assay: Western blot: degradation of full-length androgen receptor in CWR22RV1 cells; settings: overnight
Protocol: CWR22Rv1 cells were maintained in RPMI medium supplemented with 10% fetal bovine serum and 1% penicillin-streptomycin at 37° C. in a humidified environment with 5% CO2.
CWR22Rv1 (5×10^5 cells) were seeded in each well of a 6-well plate and incubated overnight. Before compound treatment, the medium in the wells was replaced with a new medium. Cells were treated with different concentrations of compound overnight. Subsequently, cells were harvested by adding cold PBS and scraping cells. Cells were lysed according to general procedures and Western blot assays were performed to assess the ability of compounds to degrade full-length androgen receptor or androgen receptor splice variant 7. The cells or cell lysates were kept on ice at all times.
The following reagents were used in this experiment. Phosphate buffered saline (PBS) (Hyclone, SH30028.02), fetal bovine serum (Hyclone, SH30084.23, Lot AC14563276), penicillin-streptomycin solution (Hyclone, SV30010), 0.5% Trypsin-EDTA (Gibco, 15400-054), CST Lysis Buffer (CST-9803), Halt™ Protease and Phosphatase Inhibitor (ThermoFisher, 78442), Coomassie (Bradford) Protein Assay (Coomassie (Bradford) protein assay) (ThermoFisher, 23200), androgen receptor antibody (Cell Siginaling, CST-5153S), GAPDH antibody (Cell Siginaling, CST-5174S), HRP-goat-anti-rabbit (Jackson Immuno Research, 111-035-003), skim milk, SuperSignal West Pico Maximum Sensitivity substrate (ThermoFisher, 34080).
The compound prepared above was analyzed for its ability to degrade full-length androgen receptor and androgen receptor splice variant 7 in CWR22RV1 cells by Western blotting according to the method shown in item B.3-2 above.

CWR22RV1 cells = assay: Cytotoxicity assay (AlamarBlue, 72 hours); settings: 72 hours treatment, concentration not given
Protocol: (§1) Compound stock solutions of 10 mM were prepared with 100% DMSO and shaken for 10-15 seconds. The compound stock solutions were centrifuged at 12000 rpm (13523 rcf.) for 5 minutes and record the turbidity or precipitation state with a photo snapshot. The compound stock solutions were resuspended by shaking for 10-15 seconds, and serially diluted with 100% DMSO solution to make the compound concentration to 1000 μM, then to 100, 10, and 1 μM, and then 10-fold diluted with medium to 100, 10, 1, 0.1 μM (final 10% DMSO/medium) to complete compound test sample preparation. Compound treatment was performed by adding 10 μL of compound test sample to cells in each well of a 96-well plate (final 1% DMSO/medium).
(§2) Cells (CWR22Rv1 cells or VCaP cells) were cultured in RPMI-1640 medium supplemented with 10% fetal bovine serum, 10,000 U/mL penicillin and 10,000 μg/mL streptomycin. Cells were cultured at 37° C. in a humidified 5% CO2 incubator.
(§3) Cells were seeded in a 96-well plate (1×10^4 cells/well). 10 μL of the above compound test sample was added to each well of the 96-well plate on next day. After 72 hours of compound treatment, 10 μL of AlamaBlue reagent was added to each of 96 wells and incubated for 4 hours. The fluorescence value at Ex/Em=560/590 nm was read with a microplate reader, and the cytotoxicity (%) was calculated.
(§4) According to the above method, the compounds prepared above were subjected to cytotoxicity test with CWR22RV1 cells and VCaP cells.

VCaP cells = assay: Cytotoxicity assay (AlamarBlue, 72 hours); settings: 72 hours treatment, concentration not given
Protocol: as §1, §2, §3, §4

[2] = compound concentration 0.1 (unit not given)
[3] = compound concentration 1 (unit not given)
[4] = compound concentration 10 (unit not given)

## Cc1cc([C@H](C(=O)N2C[C@H](O)C[C@H]2C(=O)N[C@@H](CC(=O)N2CCC(N3CCC(C#Cc4ccc(C5CCN(C6=Nn7c(nnc7C(F)(F)F)CC6)CC5)cc4)CC3)CC2)c2ccc(-c3scnc3C)cc2)C(C)C)on1 [Compound 9, (2S,4R)-4-hydroxy-1-((R)-3-methyl-2-(3-methylisoxazol-5-yl)butanoyl)-N—((S)-1-(4-(4-methylthiazol-5-yl)phenyl)-3-oxo-3-(4-((4-(1-(3-(trifluoromethyl)-7,8-dihydro-[1,2,4]triazolo[4,3-b]pyridazin-6-yl)piperidin-4-yl)phenyl)ethynyl)-[1,4′-bipiperidin]-1′-yl)propyl)pyrrolidine-2-carboxamide]
[1]; [2]
  Degradation ability for full-length androgen receptor (residual rate %): + (60-80%: +)
[1]; [3]
  Degradation ability for full-length androgen receptor (residual rate %): +++ (<40%: +++)
[1]; [4]
  Degradation ability for full-length androgen receptor (residual rate %): + (60-80%: +)
CWR22RV1 cells
  Cytotoxicity, CWR22RV1 cells (cell viability %): ++ (40-60% : ++)
VCaP cells
  Cytotoxicity, VCaP cells (cell viability %): +++ (<40% : +++)

## O=C1CCC(N2Cc3c(NC(=O)COCCCCOc4ccc(C5CCN(C6=Nn7c(nnc7C(F)(F)F)CC6)CC5)cc4)cccc3C2=O)C(=O)N1 (stereo not drawn) [Compound 30, N-(2-(2,6-dioxopiperidin-3-yl)-1-oxoisoindolin-4-yl)-2-(4-(4-(1-(3-(trifluoromethyl)-7,8-dihydro-[1,2,4]triazolo[4,3-b]pyridazin-6-yl)piperidin-4-yl)phenoxy)butoxy)acetamide]
[1]; [2]
  Degradation ability for full-length androgen receptor (residual rate %): ++ (40-60%: ++)
[1]; [3]
  Degradation ability for full-length androgen receptor (residual rate %): +++ (<40%: +++)
[1]; [4]
  Degradation ability for full-length androgen receptor (residual rate %): +++ (<40%: +++)
CWR22RV1 cells
  Cytotoxicity, CWR22RV1 cells (cell viability %): +++ (<40% : +++)
VCaP cells
  Cytotoxicity, VCaP cells (cell viability %): +++ (<40% : +++)

## O=C1CCC(N2Cc3c(NC(=O)CCCCCCOc4ccc(C5CCN(C6=Nn7c(nnc7C(F)(F)F)CC6)CC5)cc4)cccc3C2=O)C(=O)N1 (stereo not drawn) [Compound 39, N-(2-(2,6-dioxopiperidin-3-yl)-1-oxoisoindolin-4-yl)-7-(4-(1-(3-(trifluoromethyl)-7,8-dihydro-[1,2,4]triazolo[4,3-b]pyridazin-6-yl)piperidin-4-yl)phenoxy)heptanamide]
[1]; [2]
  Degradation ability for full-length androgen receptor (residual rate %): − (>80%; −)
[1]; [3]
  Degradation ability for full-length androgen receptor (residual rate %): + (60-80%: +)
[1]; [4]
  Degradation ability for full-length androgen receptor (residual rate %): ++ (40-60%: ++)
CWR22RV1 cells
  Cytotoxicity, CWR22RV1 cells (cell viability %): +++ (<40% : +++)
VCaP cells
  Cytotoxicity, VCaP cells (cell viability %): +++ (<40% : +++)

## CC1(C)C(NC(=O)c2ccc(C#CC3CCN(C4CCN(C(=O)CNc5cccc6c5C(=O)N(C5CCC(=O)NC5=O)C6=O)CC4)CC3)cc2)C(C)(C)C1OC1=Nn2c(nnc2C(F)(F)F)CC1 (stereo not drawn) [Compound 52, 4-((1′-((2-(2,6-dioxopiperidin-3-yl)-1,3-dioxoisoindolin-4-yl)glycyl)-[1,4′-bipiperidin]-4-yl)ethynyl)-N-((1r,3r)-2,2,4,4-tetramethyl-3-((3-(trifluoromethyl)-7,8-dihydro-[1,2,4]triazolo[4,3-b]pyridazin-6-yl)oxy)cyclobutyl)benzamide]
[1]; [2]
  Degradation ability for full-length androgen receptor (residual rate %): − (>80%; −)
[1]; [3]
  Degradation ability for full-length androgen receptor (residual rate %): ++ (40-60%: ++)
[1]; [4]
  Degradation ability for full-length androgen receptor (residual rate %): ++ (40-60%: ++)
CWR22RV1 cells
  Cytotoxicity, CWR22RV1 cells (cell viability %): +++ (<40% : +++)
VCaP cells
  Cytotoxicity, VCaP cells (cell viability %): +++ (<40% : +++)

## O=C1CCC(N2Cc3cc(C4CCN(C(=O)COCCCCOc5ccc(C6CCN(C7=Nn8c(nnc8C(F)(F)F)CC7)CC6)cc5)CC4)ccc3C2=O)C(=O)N1 (stereo not drawn) [Compound 41, 3-(1-oxo-5-(1-(2-(4-(4-(1-(3-(trifluoromethyl)-7,8-dihydro-[1,2,4]triazolo[4,3-b]pyridazin-6-yl)piperidin-4-yl)phenoxy)butoxy)acetyl)piperidin-4-yl)isoindolin-2-yl)piperidine-2,6-dione]
[1]; [2]
  Degradation ability for full-length androgen receptor (residual rate %): − (>80%; −)
[1]; [3]
  Degradation ability for full-length androgen receptor (residual rate %): + (60-80%: +)
[1]; [4]
  Degradation ability for full-length androgen receptor (residual rate %): +++ (<40%: +++)
CWR22RV1 cells
  Cytotoxicity, CWR22RV1 cells (cell viability %): ++ (40-60% : ++)
VCaP cells
  Cytotoxicity, VCaP cells (cell viability %): +++ (<40% : +++)

## O=C1CCC(N2C(=O)c3cccc(N4CCN(C(=O)COCCCCOc5ccc(C6CCN(C7=Nn8c(nnc8C(F)(F)F)CC7)CC6)cc5)CC4)c3C2=O)C(=O)N1 (stereo not drawn) [Compound 45, 2-(2,6-dioxopiperidin-3-yl)-4-(4-(2-(4-(4-(1-(3-(trifluoromethyl)-7,8-dihydro-[1,2,4]triazolo[4,3-b]pyridazin-6-yl)piperidin-4-yl)phenoxy)butoxy)acetyl)piperazin-1-yl)isoindoline-1,3-dione]
[1]; [2]
  Degradation ability for full-length androgen receptor (residual rate %): − (>80%; −)
[1]; [3]
  Degradation ability for full-length androgen receptor (residual rate %): ++ (40-60%: ++)
[1]; [4]
  Degradation ability for full-length androgen receptor (residual rate %): ++ (40-60%: ++)
CWR22RV1 cells
  Cytotoxicity, CWR22RV1 cells (cell viability %): + (60-80% : +)
VCaP cells
  Cytotoxicity, VCaP cells (cell viability %): +++ (<40% : +++)

## CC1(C)C(NC(=O)c2ccc(C#CC3CCN(C(=O)CNc4cccc5c4C(=O)N(C4CCC(=O)NC4=O)C5=O)CC3)cc2)C(C)(C)C1Oc1ccc2nnc(C(F)(F)F)n2n1 (stereo not drawn) [Compound 49, 4-((1-((2-(2,6-dioxopiperidin-3-yl)-1,3-dioxoisoindolin-4-yl)glycyl)piperidin-4-yl)ethynyl)-N-((1r,3r)-2,2,4,4-tetramethyl-3-((3-(trifluoromethyl)-[1,2,4]triazolo[4,3-b]pyridazin-6-yl)oxy)cyclobutyl)benzamide]
[1]; [2]
  Degradation ability for full-length androgen receptor (residual rate %): ++ (40-60%: ++)
[1]; [3]
  Degradation ability for full-length androgen receptor (residual rate %): ++ (40-60%: ++)
[1]; [4]
  Degradation ability for full-length androgen receptor (residual rate %): − (>80%; −)
CWR22RV1 cells
  Cytotoxicity, CWR22RV1 cells (cell viability %): ++ (40-60% : ++)
VCaP cells
  Cytotoxicity, VCaP cells (cell viability %): +++ (<40% : +++)

## Cc1cc([C@H](C(=O)N2C[C@H](O)C[C@H]2C(=O)N[C@@H](CC(=O)N2CCC(C#Cc3ccc(C4CCN(C5=Nn6c(nnc6C(F)(F)F)CC5)CC4)cc3)CC2)c2ccc(-c3scnc3C)cc2)C(C)C)on1 [Compound 14, (2S,4R)-4-hydroxy-1-((R)-3-methyl-2-(3-methylisoxazol-5-yl)butanoyl)-N—((S)-1-(4-(4-methylthiazol-5-yl)phenyl)-3-oxo-3-(4-((4-(1-(3-(trifluoromethyl)-7,8-dihydro-[1,2,4]triazolo[4,3-b]pyridazin-6-yl)piperidin-4-yl)phenyl)ethynyl)piperidin-1-yl)propyl)pyrrolidine-2-carboxamide]
[1]; [2]
  Degradation ability for full-length androgen receptor (residual rate %): − (>80%; −)
[1]; [3]
  Degradation ability for full-length androgen receptor (residual rate %): − (>80%; −)
[1]; [4]
  Degradation ability for full-length androgen receptor (residual rate %): +++ (<40%: +++)
CWR22RV1 cells
  Cytotoxicity, CWR22RV1 cells (cell viability %): +++ (<40% : +++)
VCaP cells
  Cytotoxicity, VCaP cells (cell viability %): +++ (<40% : +++)

## O=C1CCC(N2C(=O)c3cccc(N4CCN(c5ccc(C(=O)N[C@H]6CC[C@H](Oc7ccc8nnc(C(F)(F)F)n8n7)CC6)cn5)CC4)c3C2=O)C(=O)N1 (stereo partly drawn) [Compound 47, 6-(4-(2-(2,6-dioxopiperidin-3-yl)-1,3-dioxoisoindolin-4-yl)piperazin-1-yl)-N-((1r,4r)-4-((3-(trifluoromethyl)-[1,2,4]triazolo[4,3-b]pyridazin-6-yl)oxy)cyclohexyl)nicotinamide]
[1]; [2]
  Degradation ability for full-length androgen receptor (residual rate %): ++ (40-60%: ++)
[1]; [3]
  Degradation ability for full-length androgen receptor (residual rate %): +++ (<40%: +++)
[1]; [4]
  Degradation ability for full-length androgen receptor (residual rate %): + (60-80%: +)
CWR22RV1 cells
  Cytotoxicity, CWR22RV1 cells (cell viability %): − (<80% : −)
VCaP cells
  Cytotoxicity, VCaP cells (cell viability %): ++ (40-60% : ++)
